Measurements taken from US20180371076A1, “MATERNAL TH17 CELLS AND PSYCHIATRIC DISORDERS” (New York University, priority 2017, published 2018).
“Also recorded” adds a separate entry of the source.

What was measured:
IL-6 = IL-6 ELISA of maternal serum; format: in vivo, mouse; conditions: poly(I:C) 20 mg/kg i.p. at E12.5, 3 h, vs PBS
Method: (§1) Cell preparation, Flow cytometry, ELISA. Embryos at each implantation site were dissected in ice-cold HBSS containing Ca^2+ and Mg^2+. Myometrium was first peeled off of the decidua and embryos were discarded. Dissected decidual and placental tissues were then minced and enzymatically dissociated in HBSS containing 0.28 Wunsch units (WU)/mL Liberase (Roche) and 30 μg/ml DNase I (Roche) for 30 min at 37° C. with intermittent mixing. Digested tissues were washed in PBS containing 5 mM EDTA and 5% fetal bovine serum and then incubated again in the same buffer for 15 min at 37° C. prior to filtration through a cell strainer. After separation on a discontinuous 40% & 80% Percoll gradient, the mononuclear cell fraction was treated with ACK lysis buffer (Lonza). Mononuclear cells (1×10^6 cells/mL) were stimulated with phorbol 12-myristate 13-acetate (PMA, 50 ng/mL; Sigma), ionomycin (500 ng/mL; Sigma) in T cell media: RPMI 1640 (Invitrogen) supplemented with 10% (v/v) heat-inactivated FBS (Hyclone), 50 U penicillin-streptomycin (Invitrogen), 2 mM glutamine, and 50 μM β-mercaptoethanol. Cell culture supernatant was used for ELISA analyses. For flow cytometry, cells were incubated for 5 h with PMA, ionomycin and GolgiStop (BD). […] For ELISA with sera and placenta/decidua extract, IL-6 (Ebioscience), IL-17a (Biolgened), and IL-10 (BD) were measured according to the manufacturer's protocol. […]

TNF-α = TNF-α ELISA of maternal serum; format: in vivo, mouse; conditions: poly(I:C) at E12.5, 3 h, vs PBS
Method: (§2) Cell preparation, Flow cytometry, ELISA Embryos at each implantation site were dissected in ice-cold HBSS containing Ca2+ and Mg2+ (Gibco). Myometrium was first peeled off of the decidua and embryos were discarded. Dissected decidual and placental tissues were then minced and enzymatically dissociated in HBSS containing 0.28 Wunsch units (WU)/mL Liberase (Roche) and 30 μg/mL DNase I (Roche) for 30 min at 37° C. with intermittent mixing. Digested tissues were washed in PBS containing 5 mM EDTA and 5% fetal bovine serum and then incubated again in the same buffer for 15 min at 37° C. prior to filtration through a cell strainer. […] Intracellular cytokine staining was performed according to the manufacturer's protocol (Cytofix/Cytoperm buffer set from BD with Pacific Blue-conjugated CD4, FITC or PerCP-Cy5.5-conjugated CD8, APC4 Cy7-conjugated TCR-β, PE-Cy7-conjugated anti-IL-17a, PE-conjugated anti-IFN-γ, PECy7-conjugated anti-CD25 and PE-conjugated Foxp3 (eBioscience). LSR II (BD Biosciences) and FlowJo software (Tree Star) were used for flow cytometry and analysis. Dead cells were excluded using the Live/Dead fixable aqua dead cell stain kit (Invitrogen). For ELISA with sera and placenta/decidua extract, IL-6 (Ebioscience), IL-17a, TNF-α, IL-1β, IFN-β (Biolgened), and IL-10 (BD) were measured according to the manufacturer's protocol.

IL-1β = IL-1β ELISA of maternal serum; format: in vivo, mouse; conditions: poly(I:C) at E12.5, 3 h, vs PBS
Method: as §2

IL-10 = IL-10 ELISA of maternal serum and placenta/decidua extracts; format: in vivo, mouse; conditions: poly(I:C) at E12.5
Method: as §1

IL-17a mRNA = assay: Real-time PCR of IL-17a mRNA (placenta/decidua mononuclear cells, fetal brain); format: cell-based, mouse
Th17 cells = assay: Flow cytometry of placenta/decidua CD4+ T cells: Th17; format: in vivo, mouse; conditions: poly(I:C) vs PBS treatment, pregnant dams
Method: as §2

[1] = tested on: cortex of the fetal brain; assay: Cortical development: SATB2/TBR1/CTIP2 immunohistochemistry of fetal and adult offspring brain; format: in vivo, mouse; conditions: offspring of MIA vs PBS-treated mothers

poly(I:C)
serum IL-6 (IL-6): strong induction
serum TNF-α (TNF-α): strong induction
serum IL-1β (IL-1β): strong induction
IL-10 in serum and placenta/decidua extracts (IL-10): not affected; also recorded: did not affect
IL-17a mRNA in placenta- and decidua-associated mononuclear cells (IL-17a mRNA; isolated at E14.5, cultured 24 h): strongly up-regulated
IL-17a mRNA in fetal brain at E14.5 (IL-17a mRNA; regardless of poly(I:C) injection): not detected
placenta/decidua-associated Th17 cells (Th17 cells): increased
cortical organization by Golgi staining [1]: disorganized cortical regions
